Test results from BigSolDB 2.1.

CC(C)(C)NC[C@H](O)COc1nsnc1N1CCOCC1.O=C(O)/C=C\C(=O)O
Conditions	solubility (mole fraction)
in 2-methyltetrahydrofuran, 293.2 K	0.0001
in 2-methyltetrahydrofuran, 303.2 K	0.00017
in 2-methyltetrahydrofuran, 313.2 K	0.00038
in 2-methyltetrahydrofuran, 323.2 K	0.00067
in 2-methyltetrahydrofuran, 333.2 K	0.0013
in acetone, 281.1 K	0.00048
in acetone, 288.3 K	0.00056
in acetone, 292.8 K	0.00065
in acetone, 301.9 K	0.00089
in acetone, 313.3 K	0.00121
in acetone, 323.1 K	0.00166
in cyrene, 284 K	0.00047
in cyrene, 286.1 K	0.00054
in cyrene, 289.8 K	0.00075
in cyrene, 292.4 K	0.001
in cyrene, 301.1 K	0.00146
in cyrene, 312.2 K	0.0023
in cyrene, 323.7 K	0.00379
in cyrene, 332 K	0.0055
in dimethyl isosorbide, 282.6 K	0.00022
in dimethyl isosorbide, 289.1 K	0.00034
in dimethyl isosorbide, 297.5 K	0.00052
in dimethyl isosorbide, 309.7 K	0.00072
in dimethyl isosorbide, 325.9 K	0.00117
in dimethyl isosorbide, 330.9 K	0.00151
in ethanol, 280.1 K	0.00105
in ethanol, 285 K	0.0012
in ethanol, 290.8 K	0.00145
in ethanol, 302.3 K	0.00217
in ethanol, 312.8 K	0.00319
in ethanol, 322.7 K	0.00471
in ethanol, 329.8 K	0.00648
in isopropanol, 279.5 K	0.00013
in isopropanol, 282.9 K	0.00014
in isopropanol, 290.9 K	0.00018
in isopropanol, 293.6 K	0.00025
in isopropanol, 298.8 K	0.00037
in isopropanol, 313.7 K	0.0006
in isopropanol, 321.7 K	0.00097
in isopropanol, 330.1 K	0.00143
in n-butanol, 278.3 K	0.00028
in n-butanol, 281.7 K	0.00034
in n-butanol, 284.8 K	0.00038
in n-butanol, 289.6 K	0.00049
in n-butanol, 303.2 K	0.00075
in n-butanol, 305.1 K	0.00087
in n-butanol, 309.1 K	0.00102
in n-butanol, 316.3 K	0.00144
in n-butanol, 321.4 K	0.00178
in n-butanol, 328.7 K	0.00251
in water, 286 K	0.00245
in water, 293.1 K	0.00277
in water, 300.5 K	0.00319
in water, 305 K	0.00352
in water, 313.9 K	0.00449
in water, 320.8 K	0.00572
in water, 325.8 K	0.00694
in water, 327.2 K	0.0074
